This is an account of results in patent US10745370B2, “Farnesyl transferase inhibitors and uses thereof” (MACKAY MEMORIAL HOSPITAL, priority 2016, dated 2020).

Several values for one entry are separate records, joined by “and”; a condition that tells them apart may be missing. Identical values can stand only once.

One series addresses T1, rat PFTase (Rattus norvegicus, UniProt Q02293+Q04631).
T1 construct: purchased Jena Biosciences
Kind of series: Inhibition of farnesyl transferase (fluorescence assay). The format is biochemical. To be noted: mean ± SD of three independent experiments. As to the method:
The assay was carried out in 384-well microplates with a final volume of 20 μl by the method modified from the previous report (Long et al., 2009). Briefly, 10 nM of rat PFTase (Jena Biosciences, Jena, Germany) was incubated with the tested compound or DMSO (1%) for 15 min, and then the mixture was added in a solution (50 mM Tris-HCl, pH 7.5, 5 mM MgCl2, 5 mM DTT, 0.1 mM ZnCl2, 0.2% octyl-β-D-glucopyranoside (Sigma, St. Louis, Mo.), 10 μM PFTase substrate dansyl-Gly-Cys-Val-Leu-Ser-OH, and 10 μM farnesyl pyrophosphate (Sigma, St. Louis, Mo.)) to initiate the reaction. The reaction was incubated at 37° C. for 30 min, and the fluorescence was detected by a M5 plate reader (Molecular Devices, CA, USA) at 340 nm excitation and 505 nm emission.

A further series has as its system M1 macrophages. The series can be described thus: Differentiation analysis, cell viability of M1 macrophages. The conditions noted are these: for Cell viability of M1 macrophages: LPS-induced M1 differentiation, 6 days, control 100%; for change in M1 population of macrophages compared with control: Table 4. The format is cell-based, human. As to the method: M1 differentiation of freshly isolated CD14^+ cells was induced by the addition of lipopolysaccharide (LPS), while M2 differentiation of freshly isolated CD14^+ cells was induced by the addition of IL-4. Then, the present compounds (e.g., Mib-5, 6, 7, 8, 9, or 10) were added at the indicated dosages. 6 days later, the population of the differentiated macrophages were then determined by cell viability analysis. The cell viability was measured by cell counting kit-8 (CCK-8, Sigma). The half maximal inhibitory concentrations (IC50) of the test compounds on macrophages or dendritic cells were calculated.

Series [1] concerns macrophages. The series can be described thus: Cell marker expression on macrophages (total), flow cytometry. To be noted: for total expressed level of CD14: FIG. 3; for level of CD206: FIG. 5; for total level of CD80: compared with the control. The class given is cell-based, human. The protocol: (§1) Mononuclear cells (MNCs) were separated from the peripheral blood of healthy donors obtained with written consent by use of Ficoll-Hypaque density centrifugation, followed by positive selection with magnetic anti-CD14 microbeads.
(§2) The isolated CD14^+ cells were cultivated in Minimum Essential Medium (MEM medium) supplemented with 10% fetal bovine serum (FBS), 100 ng/ml granulocyte-macrophage colony-stimulating factor (GM-CSF, Gentaur), and 50 ng/ml interleukin-4 (IL-4, R&D), and kept in an environment of 37° C. with 5% CO2/95% air.
(§3) To evaluate the effects of the present compound on dendritic cells, the CD14^+ cells were respectively treated with 10 μM of test compound (i.e., Mib-5, Mib-6, Mib-7, Mib-8, Mib-9, and Mib-10) on day 1. Then, on day 3, the cultured medium in each well was replenished by adding half the volume of the cultured medium containing the same treatment as indicated above. Then, on day 6, a cytokine cocktail containing IL-1, IL-6, and tumor necrosis factor-α (TNF-α) was added to induce maturation. On day 7, the differentiated dendritic cells were collected and subjected to further assays, including viability assay, morphology observation, and cell marker staining.
(§4) As to the effects of the present compound on macrophages, the CD14^+ cells were cultivated and treated as indicated above except the addition of cytokine cocktail on day 6. The macrophages were collected on day 6 and subjected to further assays, including viability assay, trypan blue exclusion test, morphology observation, cell marker staining, and phagocytotic activity analysis.
(§5) The expression of various types of cell markers, such as CD14, CD206, and CD80 expressed on the surface of macrophages, and CD1a, CD14, CD83, and HLA-DR expressed on the dendritic cells, were respectively detected by fluorescein isothiocyanate (FITC) and phycoerythrin (PE)-conjugated monoclonal antibodies in FACS caliber flowcytometer. Monoclonal antibodies used in this examples included anti-CD14 (IgG-FITC), anti-CD206 (IgG-FITC), anti-CD80-PE, anti-CD1a-PE, anti-CD83-PE and anti-human leukocyte antigen (HLA)-DR-PE. Results were analyzed by CellQuest software.

For series [2], the system named is macrophages. The series can be described thus: Phagocytosis assay with fluorescent latex beads. The format is cell-based, human. The conditions noted are these: M1 and/or M2 populations, FIG. 6. The protocol:
as §4
The phagocytic activity of macrophages was measured by using flow cytometric analysis. The green fluorescent latex beads (carboxylate-modified beads with diameter 2 μm) were suspended in PBS solution and added into macrophage culture for 2 hours with vortexa at 37° C. The macrophages were subjected to flow cytometry for measurement of fluorescent intensity

For series [3], the system named is dendritic cells. Kind of series: Morphology of dendritic cells by Liu's staining. The class given is cell-based, human. To be noted: 10 μM, seven days, FIG. 8. As to the method: as §1, §2, §3
Cells were transferred to a glass coverslide and covered with solution A (0.5 g of methylene blue and 1.7 g of Eosin yellow dissolved in 1,000 ml of ethanol). After 45 seconds, solution B (1.3 g of azure, 1.4 g of methylene blue, 23.38 g of Na2HPO4, 6.5 g of KH2PO4, dissolved in 1,000 ml of distilled water) was added in the proportion of 2 parts of B to 1 part of A. Mixed the solutions well by blowing the surface. The slide was left standing for 90 seconds and then washed off the staining solution rapidly by running water. The morphology of stained cells was then examined under microscope.
(§6) In this example, the effects of the present compounds on dendritic cells were investigated. Briefly, the dendritic cells were respectively treated with 10 μM of Mib-5, Mib-6, Mib-7, Mib-8, or Mib-10. Seven days later, the cells were harvested and subjected to analysis of morphology observation, cell viability, and/or cell marker expression.

The test system of series [4] is dendritic cells. The series can be described thus: Cell marker expression on dendritic cells, flow cytometry. The format is cell-based, human. To be noted: 10 μM; for expression of CD1a, differentiation marker of dendritic cells: FIG. 9; for expression of CD83, maturation marker of dendritic cells: FIG. 10. As to the method:
as §1, §2, §3, §5, §6

Series [5] deals with skin allograft, C57BL/6 donors, BALB/c recipients. The series can be described thus: Skin allo-transplantation rejection model. The class given is in vivo, mice. The conditions noted are these: 10 mg/kg/day intraperitoneally, 20 days, FIG. 13. The protocol:
Six- to eight-week-old male C57BL/6(H-2^b) and BALB/c(H-2^d) mice were purchased from the Animal Resource Center of the National Science Council of Taiwan (Taipei, Taiwan). All animal experiments were approved by the animal ethics committee of Mackay Memorial Hospital. Surgery for skin transplantation was performed with standardized procedures. In brief, a 2×1 cm full-thickness skin graft was harvested from the C57BL/6 donor mouse. A graft bed on the BALB/c recipient was prepared. The skin graft was sutured to the recipient's graft bed. Rejection was defined as necrosis of more than 80% of the epidermal surface of the graft. The tested agents included vehicle (as control), Mib-5 (10 mg/kg/day), Mib-7 (10 mg/kg/day) and rapamycin (1.5 mg/kg/day as positive control). Treatments were administered intraperitoneally daily for consecutive 20 days until rejection was observed.
The skin allo-transplantation model, by using C57BL/6(H-2^b) mice as donors and BALB/c(H-2^d) mice as recipients, was used to examine the effect of Mib-5 and Mib-7 on allograft survival, in which rapamycin served as a positive control.

`COC1=CC(=O)[C@@]2(c3cc(=O)c4ccc(OC)cc4o3)[C@H](C[C@]3(C)[C@@H](C(=O)O)CC=C4[C@H]3CCCC4(C)C)C(C)=CC[C@H]2C1=O` [Mib-5]: on rat PFTase, the 50% inhibitory concentration (IC50) is < 10 µM and 7.51 µM. In the series on M1 macrophages, the “Cell viability of M1 macrophages” value is 63.5% and the “change in M1 population of macrophages compared with control” value is recorded as “significant reduction”. Moreover, in the series with macrophages [1], the “total expressed level of CD14” value was “not affected”, the “level of CD206” value is “increase” and the “total level of CD80” value was “significantly reduced”. The “phagocytic activity compared with control” value with macrophages [2] is reported as “reduced”. Besides, in the series on dendritic cells [3], the “dendritic cell morphology compared with control group” value is “cell death reflected in morphology changes, and less dendritic process”. Further, in the series with dendritic cells [4], the “expression of CD1a, differentiation marker of dendritic cells” value is “inhibited” and the “expression of CD83, maturation marker of dendritic cells” value was “inhibited”. Moreover, the “mean survival of skin allograft in recipient mice” value in series [5] was “significantly prolonged”.

Take `COC1=CC(=O)[C@@]2(c3cc(=O)c4c(O)cc(O)cc4o3)[C@H](C[C@]3(C)[C@@H](C(=O)O)CC=C4[C@H]3CCCC4(C)C)C(C)=CC[C@H]2C1=O` [Mib-7]: on rat PFTase, the concentration for half-maximal inhibition (IC50) is < 10 µM and 8.46 µM. In addition, in the series with M1 macrophages, the “Cell viability of M1 macrophages” value is listed as 82.5% and the “change in M1 population of macrophages compared with control” value is “decrease”. For the same compound, in the series on macrophages [1], the “total expressed level of CD14” value is given as “not affected”, the “level of CD206” value was “increase” and the “total level of CD80” value is given as “significantly reduced”. For the same compound, in the series with macrophages [2], the “phagocytic activity compared with control” value was “reduced”. In addition, the “dendritic cell morphology compared with control group” value with dendritic cells [3] is “cell death reflected in morphology changes, and less dendritic process”. In the series with dendritic cells [4], the “expression of CD1a, differentiation marker of dendritic cells” value is “inhibited” and the “expression of CD83, maturation marker of dendritic cells” value is “inhibited”. In addition, the “mean survival of skin allograft in recipient mice” value in series [5] is recorded as “significantly prolonged”.
